Measurements published in patent US9441014B2, “Skin permeating and cell entering (SPACE) peptides and methods of use thereof” (The Regents of the University of California, priority 2010, dated 2016).
Like-named read-outs stand apart in the source and are kept apart here. Residues, ends and D or L forms follow the SMILES beside them.

Tests used:
porcine skin [1] = assay type: in vitro ADME
Protocol: The ability of the SPACE peptide to carry macromolecular cargos across the SC was tested as follows. Full thickness porcine skin was obtained and prepared as described above. The peptide was first conjugated to the macromolecule as described in greater detail below and then the peptide-macromolecule complex was placed into the donor compartment of the FDC. After 24 hours, the remaining solution in the donor compartment was removed and the FDC was dismantled. The skin sample was retrieved and rinsed with DI water to remove excess peptide complex on the surface of the skin.
To conjugate the peptide to the macromolecule streptavidin, 80 μL of a 1 mg/mL biotinylated peptide solution was incubated with 20 μL of a 2 mg/mL streptavidin-Alexa Fluor 488 conjugate (Invitrogen) solution and incubated at room temperature for 30 minutes. The resulting solution was then placed into the donor compartment of the FDC. Skin samples were harvested after 24 hours and imaged as described above.
The ability of the SPACE peptide to carry quantum dots across the SC was also tested. For the delivery of quantum dots into the skin, 198 μL of a 100 ng/mL biotinylated peptide solution was incubated with 2 μL of QDot 525 streptavidin conjugate (Invitrogen) for 1 hour at room temperature. The 200 μL suspension was then placed into the donor compartment of the FDC. […]

human keratinocytes = assay: MTT assay on keratinocyte cultures; assay type: cell-based; conditions: 0.1-1.0 mg/mL
Protocol: (a) Peptide internalization (percent of control) for control peptide and SPACE peptide at 4° C. and with the endocytosis inhibitors deoxy-D-glucose, chlorpromazine, nystatin, and EIPA in human keratinocytes. (b) Cell proliferation of human keratinocytes in the presence of control peptide (open bars) or SPACE peptide (closed bars) at 0.1 mg/mL and 1.0 mg/mL. Error cars indicate SD (N=4).

porcine skin [2] = assay: Inulin permeability of porcine skin after co-incubation with peptide; assay type: in vitro ADME
human skin = assay: Peptide penetration in human skin (confocal microscopy); assay type: in vitro ADME
Protocol: The ability of the SPACE peptide to penetrate human skin when removed from phage and conjugated to an exemplary small molecule in the form of a fluorescent tag was tested as follows. Full thickness human skin was obtained from the National Disease Research Interchange. […] Fluorescently labeled peptides, 200 μL of a 1 mg/mL solution, were placed in the donor compartment of the FDC. After 24 hours, the remaining solution in the donor compartment was removed and the FDC was dismantled. The skin sample was retrieved and rinsed with DI water to remove excess peptide or peptide complex on the surface of the skin.

mouse skin = assay: Peptide penetration into mouse skin in-vivo
Protocol: The ability of the SPACE peptide to penetrate mouse skin in-vivo was tested as follows. 200 μl of fluorescently labeled peptide (1 mg/ml) was applied on the skin of a mouse. Penetration was assessed at various time points by harvesting the skin, sectioning it and observing under a microscope.

porcine skin [3] = assay: Peptide penetration into porcine skin (confocal microscopy); assay type: in vitro ADME; conditions: 200 μL of 1 mg/mL, 24 hours
Protocol: The ability of the SPACE peptide to penetrate porcine skin when removed from phage was tested as follows. Full thickness porcine skin was obtained and prepared as described above. Fluorescently labeled peptides, 200 μL of a 1 mg/mL solution, were placed in the donor compartment of the FDC. After 24 hours, the remaining solution in the donor compartment was removed and the FDC was dismantled. The skin sample was retrieved and rinsed with DI water to remove excess peptide or peptide complex on the surface of the skin.

[4] = test system: green fluorescent protein (GFP) in GFP-expressing endothelial cells; assay: GFP knockdown in GFP-expressing endothelial cells; assay type: cell-based
Protocol: GFP-expressing endothelial cells (ATCC) were grown in Dulbecco's Modified Eagle's Medium supplemented with 10% fetal bovine serum. GFP siRNA, 5′-GACGUAAACGGCCACAAGUUC N6-3′ (SEQ ID NO:26) (Dharmacon), was conjugated to fluorescently labeled peptide (containing a free carboxyl group) through EDC chemistry.
A 10 mM peptide solution was incubated with a 10 mM solution of N-(3-Dimethylaminopropyl)-N′-ethylcarbodiimide hydrochloride (EDAC, Sigma) and a 9.5 mM solution of N-Hydroxysulfosuccinimide sodium salt (NHS, Sigma) in equal parts in MES buffer (pH 5.5) for 15 minutes. The amine modified siRNA was then added to the mixture to conjugate the peptide to siRNA and allowed to mix overnight.
The peptide-siRNA complex was added to the appropriate cell culture media to obtain a final concentration of 1 μM siRNA. The media along with peptide-siRNA was then added to the cells and allowed to incubate for 48 hours. Cells were imaged using confocal microscopy and image analysis was performed using ImageJ to determine the overall fluorescence intensity for each cell.

Streptavidin not conjugated to SPACE peptide: streptavidin-Alexa Fluor 488 conjugate (Invitrogen) alone
penetration of Alexa Fluor 488 streptavidin into porcine skin (porcine skin [1]): minimal penetration into epidermis

C[C@H](N)C(=O)N[C@H]1CSSC[C@@H](C(=O)NCC(=O)O)NC(=O)[C@H](CCC(N)=O)NC(=O)[C@H](Cc2c[nH]cn2)NC(=O)[C@H](CCC(N)=O)NC(=O)[C@H]([C@@H](C)O)NC(=O)[C@H](CO)NC(=O)CNC(=O)[C@H]([C@@H](C)O)NC1=O [SPACE peptide] (HELM PEPTIDE1{A.C.T.G.S.T.Q.H.Q.C.G}$PEPTIDE1,PEPTIDE1,2:R3-10:R3$$$V2.0; N-terminus and C-terminus assumed)
toxicity to cells (MTT) (human keratinocytes): not toxic | effect on inulin permeability (porcine skin [2]): only a modest increase | penetration/localization in human skin observed from the top (human skin): high localization of the SPACE peptide within the corneocytes | penetration into mouse skin in vivo after 30 minutes (mouse skin; mouse, in vivo): resulted in penetration | penetration into mouse skin in vivo after two hours (mouse skin; mouse, in vivo): significant penetration into the skin and localization in the deep dermis

C[C@H](N)C(=O)N[C@H]1CSSC[C@@H](C(=O)NCC(=O)O)NC(=O)[C@H](CO)NC(=O)[C@H](CCC(N)=O)NC(=O)[C@H]([C@@H](C)O)NC(=O)[C@H](CCC(N)=O)NC(=O)CNC(=O)[C@H](Cc2c[nH]cn2)NC(=O)[C@H]([C@@H](C)O)NC1=O [control peptide] (HELM PEPTIDE1{A.C.T.H.G.Q.T.Q.S.C.G}$PEPTIDE1,PEPTIDE1,2:R3-10:R3$$$V2.0; N-terminus and C-terminus assumed)
penetration of fluorescently labeled peptide into porcine skin (porcine skin [3]): No significant penetration | penetration/localization in human skin observed from the top (human skin; top view looking down on SC, 24 hours): no significant penetration | penetration into mouse skin in vivo (mouse skin; 200 μl of 1 mg/ml topical): lack of skin penetration in vivo

5′-GACGUAAACGGCCACAAGUUC N6-3′ (GACGUAAACGGCCACAAGUUC; siRNA; 3' N6 group, conjugated to fluorescently labeled peptide by EDC chemistry, further chemistry not given here) [siRNA alone, GFP siRNA (Dharmacon)]
knockdown of GFP ([4]; 1 μM siRNA, 48 hours): no significant knockdown | knockdown of GFP when complexed with Lipofectamine ([4]; complexed with Lipofectamine, compared to no siRNA treatment): knockdown was significant
